# According to ChEMBL document CHEMBL5393453, “Compositions and methods of using the same for treatment of neurodegenerative and mitochondrial disease” (2021):
# Test: Cytotoxicity against human HeLa cells expressing YFP parkin assessed as highest safety dose by DAPI staining analysis
# Format: toxicity, cell-based
# Settings: read-out: Activity
row,Structure (SMILES),MNTC
1,"FC(F)(F)c1cc2c(N[C@@H]3c4ccccc4OC[C@H]3C3CCOCC3)ncnc2[nH]1 (single isomer, unassigned)",25 µM
2,FC(F)(F)c1cc2c(NC3c4ccccc4OCC3N3C[C@@H]4COC[C@H]4C3)ncnc2[nH]1 (stereo partly specified),25 µM
3,C[C@@H]1CN([C@@H]2COc3cc(F)ccc3[C@H]2Nc2ncnc3[nH]c(C(F)(F)F)cc23)C[C@H](C)O1,25 µM
4,C[C@@H]1CN([C@@H]2COc3cc(F)ccc3[C@H]2Nc2ncnc3[nH]c(C4CC4)cc23)C[C@H](C)O1,25 µM
5,CO[C@H]1CCN([C@H]2COc3ccccc3[C@@H]2Nc2ncnc3[nH]c(C(F)(F)F)cc23)C1,25 µM
6,"C[C@@H]1CN([C@H]2COc3cc(F)ccc3[C@@H]2Nc2ncnc3[nH]c(C4CC4)cc23)C[C@H](C)O1 (single isomer, unassigned)",25 µM
7,"C[C@@H]1CN([C@H]2COc3ccccc3[C@@H]2Nc2ncnc3[nH]c(C4CC4)cc23)C[C@H](C)O1 (single isomer, unassigned)",25 µM
8,COC1CN([C@H]2COc3ccccc3[C@@H]2Nc2ncnc3[nH]c(C(F)(F)F)cc23)C1,8.3 µM
9,Fc1ccc2c(c1)OC[C@@H](N1C[C@H]3COC[C@H]3C1)[C@@H]2Nc1ncnc2[nH]c(C3CC3)cc12,25 µM
10,C[C@H]1CN([C@@H]2COc3cc(F)ccc3[C@H]2Nc2ncnc3[nH]c(C4CC4)cc23)CCO1,25 µM
11,CO[C@@H]1CCN([C@H]2COc3ccccc3[C@@H]2Nc2ncnc3[nH]c(C(F)(F)F)cc23)C1,25 µM
12,"FC(F)(F)c1cc2c(N[C@@H]3c4ccccc4OC[C@@H]3C3CCCOC3)ncnc2[nH]1 (single isomer, unassigned)",25 µM
13,COC[C@H]1CCN([C@H]2COc3ccccc3[C@@H]2Nc2ncnc3[nH]c(C4CC4)cc23)C1,25 µM
14,COC1CN([C@H]2COc3ccccc3[C@@H]2Nc2ncnc3[nH]c(C4CC4)cc23)C1,25 µM
15,FC(F)(F)c1cc2c(N[C@H]3c4ccccc4OC[C@@H]3N3C[C@H]4COC[C@H]4C3)ncnc2[nH]1,25 µM
16,Fc1ccc2c(c1)CC[C@H](N1C[C@H]3COC[C@@H]3C1)[C@H]2Nc1ncnc2[nH]c(C(F)(F)F)cc12,25 µM
17,"c1ccc2c(c1)CC[C@@H](N1CCOCC1)[C@@H]2Nc1ncnc2[nH]c(C3CC3)cc12 (single isomer, unassigned)",25 µM
18,"FC(F)(F)c1cc2c(N[C@@H]3c4ccccc4CC[C@H]3N3C[C@H]4COC[C@H]4C3)ncnc2[nH]1 (single isomer, unassigned)",25 µM
19,"C[C@@H]1CN([C@H]2COc3ccccc3[C@@H]2Nc2ncnc3[nH]c(C(F)(F)F)cc23)C[C@H](C)O1 (single isomer, unassigned)",25 µM
20,"C[C@@H]1CN([C@H]2CCc3ccccc3[C@@H]2Nc2ncnc3[nH]c(C(F)(F)F)cc23)CCO1 (single isomer, unassigned)",25 µM
21,"Fc1ccc2c(c1)OC[C@H](N1C[C@@H]3COC[C@H]3C1)[C@H]2Nc1ncnc2[nH]c(C3CC3)cc12 (single isomer, unassigned)",25 µM
22,CO[C@H]1CCN([C@H]2COc3ccccc3[C@@H]2Nc2ncnc3[nH]c(C4CC4)cc23)C1,25 µM
23,C[C@H]1CN([C@@H]2COc3ccccc3[C@H]2Nc2ncnc3[nH]c(C(F)(F)F)cc23)CCO1,19.4 µM
24,c1ccc2c(c1)OC[C@@H](C1CCOCC1)[C@@H]2Nc1ncnc2[nH]c(C3CC3)cc12,25 µM
25,FC(F)(F)c1cc2c(N[C@H]3c4ccccc4CC[C@H]3C3CCOCC3)ncnc2[nH]1,25 µM
26,"CN1CCN([C@@H]2CCc3ccccc3[C@H]2Nc2ncnc3[nH]c(C(F)(F)F)cc23)CC1 (single isomer, unassigned)",25 µM
27,c1ccc2c(c1)CC[C@H](N1C[C@H]3COC[C@H]3C1)[C@H]2Nc1ncnc2[nH]c(C3CC3)cc12,25 µM
28,c1ccc2c(c1)CC[C@@H](N1C[C@H]3COC[C@@H]3C1)[C@@H]2Nc1ncnc2[nH]c(C3CC3)cc12,25 µM
29,FC(F)(F)c1cc2c(N[C@H]3c4ccccc4OC[C@H]3C3CCCOC3)ncnc2[nH]1 (mixture of isomers),25 µM
30,"c1ccc2c(c1)OCC(N1CC3CCOC3C1)C2Nc1ncnc2[nH]c(C3CC3)cc12 (single isomer, unassigned)",25 µM

# Test: Cytotoxicity against human HeLa cells expressing YFP parkin treated with FCCP/ oligomycin assessed as highest safety dose by DAPI staining analysis
# Format: toxicity, cell-based
# Settings: read-out: Activity
row,Structure (SMILES),MNTC
1,"FC(F)(F)c1cc2c(N[C@@H]3c4ccccc4OC[C@H]3C3CCOCC3)ncnc2[nH]1 (single isomer, unassigned)",4.7 µM
2,FC(F)(F)c1cc2c(NC3c4ccccc4OCC3N3C[C@@H]4COC[C@H]4C3)ncnc2[nH]1 (stereo partly specified),25 µM
3,C[C@@H]1CN([C@@H]2COc3cc(F)ccc3[C@H]2Nc2ncnc3[nH]c(C(F)(F)F)cc23)C[C@H](C)O1,2.2 µM
4,C[C@@H]1CN([C@@H]2COc3cc(F)ccc3[C@H]2Nc2ncnc3[nH]c(C4CC4)cc23)C[C@H](C)O1,1.2 µM
5,CO[C@H]1CCN([C@H]2COc3ccccc3[C@@H]2Nc2ncnc3[nH]c(C(F)(F)F)cc23)C1,1.1 µM
6,"C[C@@H]1CN([C@H]2COc3cc(F)ccc3[C@@H]2Nc2ncnc3[nH]c(C4CC4)cc23)C[C@H](C)O1 (single isomer, unassigned)",2 µM
7,"C[C@@H]1CN([C@H]2COc3ccccc3[C@@H]2Nc2ncnc3[nH]c(C4CC4)cc23)C[C@H](C)O1 (single isomer, unassigned)",2.3 µM
8,COC1CN([C@H]2COc3ccccc3[C@@H]2Nc2ncnc3[nH]c(C(F)(F)F)cc23)C1,8.3 µM
9,Fc1ccc2c(c1)OC[C@@H](N1C[C@H]3COC[C@H]3C1)[C@@H]2Nc1ncnc2[nH]c(C3CC3)cc12,16 µM
10,C[C@H]1CN([C@@H]2COc3cc(F)ccc3[C@H]2Nc2ncnc3[nH]c(C4CC4)cc23)CCO1,7.4 µM
11,CO[C@@H]1CCN([C@H]2COc3ccccc3[C@@H]2Nc2ncnc3[nH]c(C(F)(F)F)cc23)C1,3.4 µM
12,"FC(F)(F)c1cc2c(N[C@@H]3c4ccccc4OC[C@@H]3C3CCCOC3)ncnc2[nH]1 (single isomer, unassigned)",25 µM
13,COC[C@H]1CCN([C@H]2COc3ccccc3[C@@H]2Nc2ncnc3[nH]c(C4CC4)cc23)C1,3.6 µM
14,COC1CN([C@H]2COc3ccccc3[C@@H]2Nc2ncnc3[nH]c(C4CC4)cc23)C1,25 µM
15,FC(F)(F)c1cc2c(N[C@H]3c4ccccc4OC[C@@H]3N3C[C@H]4COC[C@H]4C3)ncnc2[nH]1,25 µM
16,Fc1ccc2c(c1)CC[C@H](N1C[C@H]3COC[C@@H]3C1)[C@H]2Nc1ncnc2[nH]c(C(F)(F)F)cc12,9.1 µM
17,"c1ccc2c(c1)CC[C@@H](N1CCOCC1)[C@@H]2Nc1ncnc2[nH]c(C3CC3)cc12 (single isomer, unassigned)",25 µM
18,"FC(F)(F)c1cc2c(N[C@@H]3c4ccccc4CC[C@H]3N3C[C@H]4COC[C@H]4C3)ncnc2[nH]1 (single isomer, unassigned)",9.1 µM
19,"C[C@@H]1CN([C@H]2COc3ccccc3[C@@H]2Nc2ncnc3[nH]c(C(F)(F)F)cc23)C[C@H](C)O1 (single isomer, unassigned)",7.1 µM
20,"C[C@@H]1CN([C@H]2CCc3ccccc3[C@@H]2Nc2ncnc3[nH]c(C(F)(F)F)cc23)CCO1 (single isomer, unassigned)",3.7 µM
21,"Fc1ccc2c(c1)OC[C@H](N1C[C@@H]3COC[C@H]3C1)[C@H]2Nc1ncnc2[nH]c(C3CC3)cc12 (single isomer, unassigned)",13.9 µM
22,CO[C@H]1CCN([C@H]2COc3ccccc3[C@@H]2Nc2ncnc3[nH]c(C4CC4)cc23)C1,1.1 µM
23,C[C@H]1CN([C@@H]2COc3ccccc3[C@H]2Nc2ncnc3[nH]c(C(F)(F)F)cc23)CCO1,19.4 µM
24,c1ccc2c(c1)OC[C@@H](C1CCOCC1)[C@@H]2Nc1ncnc2[nH]c(C3CC3)cc12,3.2 µM
25,c1ccc2c(c1)CC[C@H](N1C[C@H]3COC[C@H]3C1)[C@H]2Nc1ncnc2[nH]c(C3CC3)cc12,0.9 µM
26,FC(F)(F)c1cc2c(N[C@H]3c4ccccc4OC[C@H]3C3CCCOC3)ncnc2[nH]1 (mixture of isomers),25 µM
